# According to patent US12259378B2, “Dynamic clamps and methods of use thereof” (priority 2018, dated 2025):
# “Also recorded” adds a separate entry of the source. Like-named read-outs stand apart in the source and are kept apart here.
# Tests used:
# [1] = tested on: patients with R853Q mutation; conditions: human, in vivo
# From the text: (§1) All patients, or their parents or legal guardian in the case of minors or individuals with intellectual disability, gave written informed consent. The study was approved by the Human Research Ethics Committee of Austin Health, Melbourne.
# (§2) Clinical data was collated from the literature for previously reported individuals (N=14), with updated clinical information obtained in one patient. Individuals whose clinical data was not previously published (N=5), had their mutations identified through clinical testing. Detailed phone or clinical interviews with these parents were undertaken by paediatric epileptologists (KBH, MRC), home videos were reviewed and medical records from the treating neurologist obtained.
# [2] = tested on: patients with R1882Q mutation; conditions: human, in vivo; cited from earlier work
# [3] = tested on: patients with R1882Q mutation; conditions: human, in vivo
# From the text: as §1, §2
# [4] = tested on: patients with R853Q mutation; conditions: human, in vivo; cited from earlier work
# human Nav 1.2 channel = human Nav 1.2 channel (Homo sapiens, UniProt Q99250, R1882Q)
# Chain of human Nav 1.2 channel (Q99250 whole entry R1882Q, looked up): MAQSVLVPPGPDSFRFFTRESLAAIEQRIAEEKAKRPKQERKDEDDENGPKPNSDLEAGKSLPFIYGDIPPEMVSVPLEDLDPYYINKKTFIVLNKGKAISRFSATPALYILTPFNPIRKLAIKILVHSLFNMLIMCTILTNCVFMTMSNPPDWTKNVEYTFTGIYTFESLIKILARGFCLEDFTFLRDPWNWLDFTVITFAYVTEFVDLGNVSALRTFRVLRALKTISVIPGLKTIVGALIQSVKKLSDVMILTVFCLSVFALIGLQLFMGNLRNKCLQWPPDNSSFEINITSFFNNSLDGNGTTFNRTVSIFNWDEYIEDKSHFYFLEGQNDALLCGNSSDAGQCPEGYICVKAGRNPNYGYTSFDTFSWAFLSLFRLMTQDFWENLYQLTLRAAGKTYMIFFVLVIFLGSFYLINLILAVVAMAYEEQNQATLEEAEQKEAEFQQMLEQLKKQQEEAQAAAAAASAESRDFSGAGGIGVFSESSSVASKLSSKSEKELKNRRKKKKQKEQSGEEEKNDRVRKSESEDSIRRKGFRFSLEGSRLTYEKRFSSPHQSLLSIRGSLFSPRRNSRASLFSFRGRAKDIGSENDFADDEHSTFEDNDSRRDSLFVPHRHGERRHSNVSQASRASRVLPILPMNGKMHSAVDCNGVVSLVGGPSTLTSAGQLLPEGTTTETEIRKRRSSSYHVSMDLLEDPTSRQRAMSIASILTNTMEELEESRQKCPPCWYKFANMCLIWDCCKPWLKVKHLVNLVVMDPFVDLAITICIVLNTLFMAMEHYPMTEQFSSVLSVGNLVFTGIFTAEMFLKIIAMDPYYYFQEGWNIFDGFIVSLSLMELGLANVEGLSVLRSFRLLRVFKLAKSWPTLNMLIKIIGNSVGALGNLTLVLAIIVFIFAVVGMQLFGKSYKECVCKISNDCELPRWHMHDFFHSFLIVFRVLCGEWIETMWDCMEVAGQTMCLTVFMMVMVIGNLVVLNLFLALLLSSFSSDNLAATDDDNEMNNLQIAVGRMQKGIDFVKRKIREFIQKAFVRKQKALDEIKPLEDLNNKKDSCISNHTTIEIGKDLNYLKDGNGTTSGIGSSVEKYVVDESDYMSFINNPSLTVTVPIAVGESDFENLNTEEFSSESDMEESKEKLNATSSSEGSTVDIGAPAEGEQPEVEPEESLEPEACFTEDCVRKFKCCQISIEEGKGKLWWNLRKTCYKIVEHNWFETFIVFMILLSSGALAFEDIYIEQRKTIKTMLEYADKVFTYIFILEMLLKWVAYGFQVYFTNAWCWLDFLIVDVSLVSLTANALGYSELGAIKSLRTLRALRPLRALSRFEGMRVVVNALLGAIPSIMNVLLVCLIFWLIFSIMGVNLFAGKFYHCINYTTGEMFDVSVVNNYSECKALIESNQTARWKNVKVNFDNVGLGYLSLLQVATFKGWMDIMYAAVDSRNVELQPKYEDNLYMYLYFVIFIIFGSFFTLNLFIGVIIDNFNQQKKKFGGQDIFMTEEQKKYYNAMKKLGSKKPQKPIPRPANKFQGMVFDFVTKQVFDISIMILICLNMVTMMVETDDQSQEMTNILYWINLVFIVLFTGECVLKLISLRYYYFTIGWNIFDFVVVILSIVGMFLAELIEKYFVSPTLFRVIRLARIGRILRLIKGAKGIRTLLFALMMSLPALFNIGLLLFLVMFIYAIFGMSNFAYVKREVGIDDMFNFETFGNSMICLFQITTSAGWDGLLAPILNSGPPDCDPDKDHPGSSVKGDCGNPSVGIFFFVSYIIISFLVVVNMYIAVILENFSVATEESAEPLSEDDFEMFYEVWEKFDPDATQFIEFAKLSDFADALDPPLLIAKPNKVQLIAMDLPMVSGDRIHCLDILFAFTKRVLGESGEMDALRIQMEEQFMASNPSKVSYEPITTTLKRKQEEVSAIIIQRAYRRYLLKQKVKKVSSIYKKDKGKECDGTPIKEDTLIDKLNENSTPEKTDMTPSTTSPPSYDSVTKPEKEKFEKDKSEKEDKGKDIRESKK
molecule,measurement,setting,value
"NC(=O)N1c2ccccc2CC(=O)c2ccccc21 [OXC, oxcarbazepine]",Other sodium channel blocker response,[1],seizure control remained good
same,Other sodium channel blocker response,[2],no effect
L-Dopa/Carbidopa,Improvement of movement disorder,[1],Improvement
"CCCC(CCC)C(=O)O [VPA, valproic acid]",Other AED response,[3],Benefit
same,Other AED response,[4],Benefit
"O=C1NC(=O)C(c2ccccc2)(c2ccccc2)N1 [PHT, phenytoin]",Adverse effect with phenytoin loads (movement disorder),[3],‘continuous thrashing’
same,PHT response,[3],Benefit
same,"Seizure control, summary over patients",[3],some showed marked improvement; also recorded: improved seizure control in two and no definite effect on seizures in three; also recorded: some patients with R1882Q mutations become seizure free; also recorded: not universal
same,PHT response,[1],No effect
same,PHT response,[2],No effect
same,PHT response,[4],No effect
"adrenocorticotropic hormone (SYSMEHFRWGKPVGKKRRPVKVYPNGAEDESAEAFPLEF; Corticotropin; UniProt P01189 138-176, looked up) [ACTH]",Other AED response,[1],Benefit
same,"Seizure control, summary over patients",[1],beneficial in four patients
same,Other AED response,[4],Benefit
NC1=N[C@H](O)[C@H]2[C@H]3O[C@]4(O)O[C@@H]([C@@H](O)[C@@]2(N1)[C@@H]4O)[C@]3(O)CO [tetrodotoxin],Sensitivity of persistent INa to tetrodotoxin,human Nav 1.2 channel,sensitive
"CC1(C)O[C@@H]2[C@@H](CO[C@@]3(COS(N)(=O)=O)OC(C)(C)O[C@@H]23)O1 [TPM, topiramate]",Other AED response,[4],Benefit
"CCCCCc1cc(O)c2c(c1)OC(C)(C)[C@@H]1CCC(C)=C[C@@H]21 [THC, tetrahydrocannabinol]",Other AED response,[1],Benefit
"NC(=O)N1c2ccccc2C=Cc2ccccc21 [CBZ, carbamazepine]","Seizure control, summary over patients",[3],Seizures were improved
same,Other sodium channel blocker response,[1],benefit
"C=C(C)[C@@H]1CCC(C)=C[C@H]1c1c(O)cc(CCCCC)cc1O [CBD, cannabidiol]",Other AED response,[3],Benefit
"CN1C(=O)CC(=O)N(c2ccccc2)c2cc(Cl)ccc21 [CLB, clobazam]",Other AED response,[4],Benefit
CCCCCCC(=O)OCC(COC(=O)CCCCCC)OC(=O)CCCCCC [triheptanoin],Other AED response,[3],Benefit
same,Improvement of movement disorder,[1],Improvement
same,Other AED response,[1],Benefit
"Nc1nnc(-c2cccc(Cl)c2Cl)c(N)n1 [LTG, lamotrigine]",Other sodium channel blocker response,[2],no effect
"C=CC(N)CCC(=O)O (stereo not shown) [VGB, vigabatrin]","Seizure control, summary over patients",[1],beneficial in one and exacerbated seizures in three
same,Other AED response,[4],Benefit
CC1OC(C)OC(C)O1 (stereo not shown) [paraldehyde],Other AED response,[1],Benefit
